Laboratory results: PubChem BioAssay (NCI)
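Growth conditions: 96-well plates. Treatment: test compound, 48 hours, 5 concentrations. Analysis: linear interpolation between bracketing concentrations; unreached endpoints set to highest concentration. Abbreviation: GI50, concentration required for 50% inhibition of growth. TGI: total growth inhibition.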

What was measured:
Assay in all cases: NCI tumour cell line growth inhibition, 48 h
[1] = system: PC-3 prostate
[2] = system: SNB-19 CNS
[3] = system: RPMI-8226 leukemia
[4] = system: U251 CNS
[5] = system: MDA-MB-435
[6] = system: OVCAR-8 ovarian
[7] = system: HOP-92 NSCLC
[8] = system: TK-10 renal
[9] = system: HCC-2998 colon
[10] = system: SR leukemia

Row | SMILES | TGI [1] | TGI [2] | TGI [3] | TGI [4] | TGI [5] | TGI [6] | TGI [7] | TGI [8] | TGI [9] | TGI [10] | GI50 [1] | GI50 [2] | GI50 [10] | GI50 [4] | GI50 [5] | GI50 [7] | GI50 [8] | GI50 [9] | GI50 [3] | GI50 [6]
1 | O=Nn1c2ccccc2c2ccccc21 | > 100 µM | > 100 µM | > 100 µM | > 100 µM | > 100 µM | > 100 µM | > 100 µM | > 100 µM | 60.7 µM |  |  |  |  |  |  |  |  |  |  | 
2 | CCOC(=O)CCCc1cc(=O)c2c(C)c3[nH]c4ccc(Cl)cc4c3c(C)c2[nH]1 | 70.6 µM | 60.7 µM | > 100 µM | 50.5 µM | 47.8 µM | 59.8 µM | 68.2 µM | 48.8 µM | > 100 µM | > 100 µM |  |  |  |  |  |  |  |  |  | 
3 | CC(=O)OC/C=C\Cn1ncc(=O)[nH]c1=O | 36 µM | > 100 µM | 31.4 µM | 28.2 µM | 39.3 µM | 66.1 µM | 30.6 µM |  | 35 µM |  |  |  |  |  |  |  |  |  |  | 
4 | Nc1ccc(C2(c3ccc(N)cc3)C3CC4CC(C3)CC2C4)cc1 | 29.3 µM | 33.3 µM |  | 37 µM | 31.5 µM | 35.5 µM | 28.5 µM | 32.2 µM | 41 µM | > 100 µM |  |  |  |  |  |  |  |  |  | 
5 | CC=C/C=C/[C@@H]1O[C@](O)([C@H](CC)C(=O)NC/C=C/C=C(\C)[C@@H](OC)[C@@H](C)[C@@H]2O[C@H](/C=C/C=C/C=C(\C)C(=O)c3c(O)cc[nH]c3=O)[C@H](O)[C@@H]2O)[C@H](O)[C@H](O)C1(C)C | > 100 µM | > 100 µM | > 100 µM | > 100 µM | > 100 µM | > 100 µM | > 100 µM | > 100 µM | > 100 µM | > 100 µM |  |  |  |  |  |  |  |  |  | 
6 | Fc1ccc(C2CC(c3cccc(Nc4ccncc4)c3)=NN2c2ccccc2)cc1 (stereo unspecified) | 3.18 µM | 3.04 µM |  | 3.64 µM | 3.14 µM |  | 2.73 µM | 3.75 µM | 3 µM | 5.67 µM | 1.58 µM | 1.61 µM | 2.17 µM | 1.84 µM | 1.63 µM | 1.33 µM | 1.99 µM | 1.63 µM |  | 
7 | Nc1nc(N)c(N=Nc2ccccc2)c(=O)[nH]1 |  | > 100 µM | > 100 µM | > 100 µM |  | > 100 µM | > 100 µM | > 100 µM | > 100 µM | > 100 µM |  |  |  |  |  |  |  |  |  | 
8 | CCOP(=O)(OCC)C(Cc1c[nH]c2ccccc12)C(=O)O (stereo unspecified) | > 100 µM | > 100 µM | > 100 µM | > 100 µM | > 100 µM | > 100 µM | > 100 µM | > 100 µM | > 100 µM | > 100 µM |  |  |  |  |  |  |  |  |  | 
9 | O=S1(=O)C[C@H](NCc2ccccc2)[C@H](NCc2ccccc2)C1 | > 100 µM | > 100 µM | 86.7 µM | > 100 µM | > 100 µM | > 100 µM | > 100 µM | > 100 µM | > 100 µM | > 100 µM |  |  |  |  |  |  |  |  |  | 
10 | COc1ncnc2c(Cl)c(C(O)c3ccccc3)c(Cl)cc12 (stereo unspecified) | > 100 µM | 79.9 µM | 66.4 µM | > 100 µM | 21.3 µM | > 100 µM | 65.4 µM | 63.4 µM |  | 22.7 µM |  |  |  |  |  |  |  |  |  | 
11 | Cc1ccc(S(=O)(=O)NCCCSCCN)cc1 | > 100 µM | > 100 µM |  | > 100 µM | > 100 µM | > 100 µM | > 100 µM | > 100 µM | > 100 µM | > 100 µM |  |  |  |  |  |  |  |  |  | 
12 | COc1ccc(/C=C/c2cc(O)cc(OC3OC(CO)C(O)C(O)C3O)c2)cc1O (stereo unspecified) | > 100 µM | > 100 µM | > 100 µM | > 100 µM | > 100 µM | > 100 µM | > 100 µM | > 100 µM | > 100 µM | > 100 µM |  |  |  |  |  |  |  |  |  | 
13 | OCC1NC(CO)C(O)C1O (stereo unspecified) | > 100 µM | > 100 µM | > 100 µM | > 100 µM | > 100 µM | > 100 µM | > 100 µM | > 100 µM | > 100 µM | > 100 µM |  |  |  |  |  |  |  |  |  | 
14 | O=C(Nc1ccc(C(F)(F)F)cc1[N+](=O)[O-])C(=O)Nn1c(=S)[nH]c2ccccc2c1=O |  | > 100 µM | > 100 µM | > 100 µM |  | > 100 µM | > 100 µM | > 100 µM | > 100 µM | > 100 µM |  |  |  |  |  |  |  |  |  | 
15 | CC(C)N(CCNc1nc(C(Cl)(Cl)Cl)nc2cc(Cl)ccc12)C(C)C | 2.73 µM | 4.78 µM | 3.18 µM | 2.53 µM | 3.47 µM | 3.4 µM | 3.17 µM | 2.88 µM | 2.86 µM | 3.11 µM | 1.15 µM | 1.9 µM | 0.926 µM | 1.21 µM | 1.71 µM | 1.01 µM | 1.46 µM | 1.34 µM | 1.19 µM | 1.83 µM
